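Results reflect a 48-hour exposure of cells in 96-well plates to compound at five concentrations. GI50 = concentration required for 50% inhibition of growth. At the TGI there is no net growth.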
Assays:
Assay in all cases: NCI tumour cell line growth inhibition, 48 h
[1] = test system: SK-MEL-28 melanoma
[2] = test system: HOP-92 NSCLC
[3] = test system: OVCAR-3 ovarian
[4] = test system: SK-MEL-2 melanoma
[5] = test system: HCT-116 colon
[6] = test system: MCF7 breast
[7] = test system: OVCAR-5 ovarian
[8] = test system: M14 melanoma
[9] = test system: MDA-MB-435
[10] = test system: UO-31 renal

Row | Structure (SMILES) | GI50 [1] [µM] | TGI [1] [µM] | GI50 [2] [µM] | TGI [2] [µM] | GI50 [3] [µM] | TGI [3] [µM] | GI50 [4] [µM] | TGI [4] [µM] | GI50 [5] [µM] | TGI [5] [µM] | GI50 [6] [µM] | TGI [6] [µM] | GI50 [7] [µM] | TGI [7] [µM] | GI50 [8] [µM] | TGI [8] [µM] | GI50 [9] [µM] | TGI [9] [µM] | GI50 [10] [µM] | TGI [10] [µM]
1 | CC(C)[C@@H]1C=C2CC[C@H]3[C@](C)(CN)CCC[C@]3(C)[C@H]2CC1 | 16.9 | 30.7 | 3.3 | 17.6 | 2.8 | 9.22 | 3.88 | 14.2 | 1.77 | 3.18 | 1.62 | 3.06 | 2.22 | 5.38 | 1.86 | 3.4 | 1.98 | 4.2 | 3.33 | 16.1
2 | CCN1C(=O)N(c2ccccc2)C2NC(=S)N(/N=C/C=C/c3ccccc3OC)C21 (stereo not given) | 4.73 | > 100 | 2.15 | > 85 | 0.0778 | 0.221 | 0.166 | > 76.2 | 0.105 | > 32.7 | 0.0942 | > 64.3 | 0.17 | > 86.2 | 0.0946 |  | 0.0356 | 0.155 | 0.486 | > 100
3 | CN(C)c1cc(NN=C(c2ccc(O)cc2)c2ccc(O)cc2)c([N+](=O)[O-])cc1[N+](=O)[O-] | 2.85 | 10.5 | 10.2 | 25.4 | 2.53 | 9.81 | 7.45 | 22.9 | 5.14 | 21.1 | 3.42 | 16 | 17.2 | 32.4 | 9.06 | 22.6 | 3.02 | 14.3 | 5.32 | 20.5
4 | CCN(Cc1ccc(F)cc1)c1cc(Cl)c(CO)c(Cl)c1 | 17.3 | 31.5 | 3.61 | 18.1 | 11.7 | 24.3 | 15 | 29.5 | 5.15 | 18.7 | 13.7 | 28 | 4.22 | 17.7 | 17 | 35 | 17.9 | 37 | 12.2 | 25.4
5 | CCCCCCCCCCCCC(O)c1ccc(C#CCCCCCCCCCO)o1 (stereo not given) | 37.2 | > 100 | 19.8 | 37.9 | 19.1 | 34 | 26.4 | 81 | 14.4 | 27.4 | 17.3 | 42.3 | 20.9 | 39.2 | 17.4 | 31.9 | 18.9 | 34.3 | 19.9 | 38.5
6 | O=C(O)c1ccc2c(c1C(=O)O)C(=O)OC2(c1ccc(O)cc1)c1ccc(O)cc1 |  | > 100 |  | > 100 |  | > 100 |  | > 100 |  | > 100 |  | > 100 |  | > 100 |  | > 100 |  | > 100 |  | > 100
7 | CCOC(=S)SCC(=O)O |  | > 100 |  | > 100 |  | > 100 |  | > 100 |  | > 100 |  | > 100 |  | > 100 |  | > 100 |  | > 100 |  | > 100
8 | CCN(C(=O)N1CCN(c2cc3c(cc2F)c(=O)c(C(=O)O)cn3C2CC2)CC1)c1nc(-c2ccc(Cl)cc2)cs1 | 1.91 | > 100 | 0.825 | 4.8 | 1.22 | > 100 | 2.12 | 5.39 | 1.1 | > 100 | 2.97 | > 100 | 2.62 | > 100 | 2.12 | > 100 | 1.21 | 7.03 | 0.986 | > 20.5
9 | COC[C@H]1Cn2cc(-c3nc(Nc4ccnn4C)ncc3C)nc2C(=O)N1Cc1ccc(F)c(F)c1 |  |  | 0.21 | > 26.4 | 60.6 | > 100 | 0.0964 | > 100 | 0.124 | > 100 | 9.79 | > 100 | 0.103 | > 100 | 0.0403 | > 100 | 0.186 | > 100 | 2.66 | > 86.6
10 | O=C(CCCSc1nc(-c2ccccc2)cc(-c2ccccc2)n1)NO | 1.95 | 7.2 | 1.58 | 6.13 | 1.6 | 6.16 | 2.35 | 12.6 | 0.657 | 11.7 | 2.1 | 14.3 | 1.37 | 5.64 | 0.927 | 5.29 | 2.05 | 10.1 | 0.274 | 1.27
11 | Nc1ccc(C2=NNC(=O)Cc3cc4c(cc32)OCCO4)cc1Cl | 9.1 | > 50 | 4.89 | 49 | 1.51 | 6.47 | 2.81 | 44.6 | 2.64 | > 50 | 1.99 | > 50 | 7.96 | > 50 | 2.3 | > 50 | 0.886 | 4.18 | 16.8 | > 50
12 | CCOC(=O)C1=C(C)N(c2ccc(F)cc2F)[C@]2(C#N)C(O)=C(Cl)C(Cl)=C(O)[C@]12C#N | > 100 | > 100 | 1.77 | > 100 | > 100 | > 100 | > 100 | > 100 | > 100 | > 100 | > 100 | > 100 | 20.5 | > 100 | > 100 | > 100 | > 100 | > 100 | > 100 | > 100
13 | COc1cc(-c2ccc3cc(OC)c(OC)c(OC)c3c2)cc(OC)c1OC | > 100 | > 100 | 2.17 | 14.1 | > 100 | > 100 | 16.6 | > 100 | 11.9 | > 100 | > 100 | > 100 | > 100 | > 100 | 9.52 | > 100 | 2.8 | > 100 |  | 
